The values that follow come from PubChem BioAssay (NCI).

Among the test systems are UACC-62 melanoma; SK-OV-3 ovarian; HOP-62 NSCLC; SNB-19 CNS; SF-268 CNS; RPMI-8226 leukemia; SK-MEL-2 melanoma; OVCAR-8 ovarian; UO-31 renal; ACHN renal.
Assay in all cases: inhibition of tumour cell growth, NCI panel, 48 h

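Protocol summary: plate cells (96-well), add compound at 5 concentrations, incubate 48 h, interpolate endpoints linearly. At the GI50, growth is halved. TGI: concentration producing complete growth inhibition.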 Some results are limits rather than exact numbers.

With `O=Cc1cccc2c1Oc1c(cccc1C(=O)O)S2`, the TGI with UACC-62 melanoma is greater than 100 µM; in the experiment on SK-OV-3 ovarian, greater than 100 µM; in the experiment on HOP-62 NSCLC, greater than 100 µM; in the experiment on SNB-19 CNS, greater than 100 µM; in the experiment on SF-268 CNS, greater than 100 µM; in the experiment on RPMI-8226 leukemia it was 63.3 µM. In addition, the TGI in the experiment on SK-MEL-2 melanoma, in the experiment on OVCAR-8 ovarian, in the experiment on UO-31 renal and with ACHN renal was greater than 100 µM each time.
As to `Cc1cc(Cl)ccc1NC(=O)C(=O)C(C(=O)c1ccc2ccccc2c1)C1OC(=O)c2ccccc21` (stereo not given), the TGI with UACC-62 melanoma was 24 µM; with SK-OV-3 ovarian it was 49.1 µM; in the experiment with HOP-62 NSCLC, 26.6 µM; in the experiment with SNB-19 CNS, 18.3 µM; with SF-268 CNS, 60.5 µM; in the experiment with RPMI-8226 leukemia it was 35.5 µM. Besides, the TGI with SK-MEL-2 melanoma was 27.3 µM; in the experiment on OVCAR-8 ovarian, greater than 100 µM; with UO-31 renal it was 31.5 µM; with ACHN renal, greater than 100 µM.
Turning to `NC(=O)c1cccc(Nc2nccc(Nc3cccc4[nH]ncc34)n2)c1`, the GI50 was 7.02 µM in the experiment with UACC-62 melanoma; 8.45 µM in the experiment on SK-OV-3 ovarian; 9.28 µM with HOP-62 NSCLC; 12.7 µM with SNB-19 CNS; 8.45 µM in the experiment with SF-268 CNS; greater than 25 µM in the experiment with RPMI-8226 leukemia. Moreover, the GI50 with SK-MEL-2 melanoma is 7.91 µM; in the experiment with OVCAR-8 ovarian, 8.11 µM; in the experiment with UO-31 renal, 12.4 µM; with ACHN renal, 10.9 µM. The TGI in the experiment on UACC-62 melanoma, with SK-OV-3 ovarian, in the experiment with HOP-62 NSCLC, with SNB-19 CNS, with SF-268 CNS and in the experiment on RPMI-8226 leukemia was greater than 25 µM each time. For the same compound, the TGI was 17.8 µM in the experiment on SK-MEL-2 melanoma, greater than 25 µM in the experiment with OVCAR-8 ovarian, greater than 25 µM with UO-31 renal and greater than 25 µM with ACHN renal.
Turning to `COC(C(=O)NCCCCNC(=O)C(OC)c1ccccc1)c1ccccc1` (stereo not given), the TGI with UACC-62 melanoma, in the experiment on SK-OV-3 ovarian, in the experiment on HOP-62 NSCLC, in the experiment on SNB-19 CNS, in the experiment on SF-268 CNS and in the experiment with RPMI-8226 leukemia was greater than 100 µM each time. The TGI with SK-MEL-2 melanoma, with OVCAR-8 ovarian, with UO-31 renal and with ACHN renal was greater than 100 µM throughout.
Turning to `COc1ccc(OC)c2c1[nH]c(=O)c1c3ncccc3cn21`, the GI50 with UACC-62 melanoma was 4.43 µM; in the experiment with SK-OV-3 ovarian, 4.63 µM; in the experiment on HOP-62 NSCLC it was 3.22 µM; in the experiment on SNB-19 CNS, 5.6 µM; in the experiment on SF-268 CNS, 4.21 µM; in the experiment on RPMI-8226 leukemia it was 6.78 µM. In addition, the GI50 in the experiment on SK-MEL-2 melanoma was 7.17 µM; with OVCAR-8 ovarian, 2.53 µM; in the experiment with UO-31 renal, 2.49 µM; in the experiment with ACHN renal, 2.03 µM. In addition, the TGI in the experiment with UACC-62 melanoma, in the experiment on SK-OV-3 ovarian, in the experiment with HOP-62 NSCLC, in the experiment on SNB-19 CNS, with SF-268 CNS and with RPMI-8226 leukemia was greater than 100 µM each time. Moreover, the TGI with SK-MEL-2 melanoma, with OVCAR-8 ovarian, in the experiment on UO-31 renal and with ACHN renal was greater than 100 µM throughout.
Regarding `COc1ccccc1CNCCCN1C(=O)c2ccc3c4c(ccc(c24)C1=O)C(=O)N(CCCCNCCCN)C3=O`, the GI50 is 1.01 µM with UACC-62 melanoma; 3.74 µM in the experiment with SK-OV-3 ovarian; 2.93 µM in the experiment with HOP-62 NSCLC; 1.31 µM in the experiment on SNB-19 CNS; 1.57 µM in the experiment with SF-268 CNS; 1.91 µM with RPMI-8226 leukemia. Besides, the GI50 in the experiment with SK-MEL-2 melanoma was 1.09 µM; in the experiment with OVCAR-8 ovarian it was 0.71 µM; in the experiment with UO-31 renal, 3.5 µM; with ACHN renal it was 3.68 µM. Besides, the TGI in the experiment with UACC-62 melanoma was determined as 2.68 µM; in the experiment with SK-OV-3 ovarian, 15.9 µM; with HOP-62 NSCLC it was 10.4 µM; in the experiment on SNB-19 CNS it was 2.72 µM; in the experiment with SF-268 CNS it was 7.27 µM; with RPMI-8226 leukemia, 10.7 µM. Besides, the TGI with SK-MEL-2 melanoma worked out at 3.09 µM; in the experiment with OVCAR-8 ovarian, 3.67 µM; with UO-31 renal, 14.4 µM; in the experiment with ACHN renal, 17.3 µM.
Regarding `O=C1C=CC(=O)c2cc(Sc3ccccc3)c(=O)ccc21`, the TGI in the experiment with UACC-62 melanoma was 30.4 µM; in the experiment with SK-OV-3 ovarian, 54.9 µM; with HOP-62 NSCLC, 47.3 µM; with SNB-19 CNS it was 38.1 µM; with SF-268 CNS, 44.4 µM; with RPMI-8226 leukemia, 14.9 µM. The TGI with SK-MEL-2 melanoma was found to be 28.7 µM; in the experiment with OVCAR-8 ovarian, 33.9 µM; with UO-31 renal, 30.5 µM; with ACHN renal, 23.3 µM.
Turning to `Cc1cc(C)c(Cn2cnc3c(Cl)ncnc32)c(C)c1CCl`, the GI50 with UACC-62 melanoma is 61.3 µM; in the experiment on SK-OV-3 ovarian, 53.7 µM; in the experiment on HOP-62 NSCLC it was greater than 100 µM; in the experiment on SNB-19 CNS, greater than 100 µM; in the experiment on SF-268 CNS it was 79.7 µM; in the experiment on RPMI-8226 leukemia it was 24.4 µM. Also, the GI50 was greater than 100 µM in the experiment with SK-MEL-2 melanoma, greater than 100 µM in the experiment on OVCAR-8 ovarian, greater than 100 µM in the experiment on UO-31 renal and 0.233 µM in the experiment on ACHN renal. The TGI in the experiment with UACC-62 melanoma, with SK-OV-3 ovarian, with HOP-62 NSCLC, with SNB-19 CNS, in the experiment on SF-268 CNS and with RPMI-8226 leukemia was greater than 100 µM in each case. For the same compound, the TGI with SK-MEL-2 melanoma was greater than 100 µM; with OVCAR-8 ovarian, greater than 100 µM; with UO-31 renal, greater than 100 µM; in the experiment with ACHN renal it was 14.1 µM.
Regarding `O=C1OC(O)C(Oc2c(Cl)cccc2Cl)=C1Cl` (stereo not given), the TGI is 24.7 µM with UACC-62 melanoma; 43.5 µM in the experiment on SK-OV-3 ovarian; 34.7 µM in the experiment with HOP-62 NSCLC; 78.1 µM with SNB-19 CNS; 31.3 µM in the experiment on SF-268 CNS; 57 µM in the experiment on RPMI-8226 leukemia. In addition, the TGI with SK-MEL-2 melanoma was 34.2 µM; in the experiment with OVCAR-8 ovarian, 37.9 µM; with UO-31 renal, 28.2 µM; with ACHN renal, 42.3 µM.
For the compound `Cc1cccc(C)c1NC(=O)Nc1ccc(S(N)(=O)=O)cc1`, the TGI in the experiment on UACC-62 melanoma, in the experiment on SK-OV-3 ovarian, with HOP-62 NSCLC, in the experiment with SNB-19 CNS, in the experiment on SF-268 CNS and with RPMI-8226 leukemia was greater than 100 µM throughout. Moreover, the TGI in the experiment with SK-MEL-2 melanoma, in the experiment with OVCAR-8 ovarian, in the experiment on UO-31 renal and in the experiment on ACHN renal was greater than 100 µM throughout.
